These results are taken from publication PMC3062375 (Biochemistry, 2011).

This test deals with T1, S100A11 protein (Sus scrofa, UniProt P31950).
T1 sequence (P31950 1-99): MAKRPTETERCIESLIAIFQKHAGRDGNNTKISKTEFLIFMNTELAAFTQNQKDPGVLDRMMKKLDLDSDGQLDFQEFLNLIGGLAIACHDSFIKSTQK
Description: Tryptophan fluorescence titration of peptide binding to S100A11. Set-up: species or system porcine.

Non-standard residues stand in square brackets, D forms with d. Residues, ends and D or L forms follow the SMILES beside them. No end group written: not given here. pS = N[C@@H](COP(=O)(O)O)C(=O)O

What is called Kd is the constant that tells how readily two partners part at equilibrium. Regarding `CC[C@H](C)[C@H](NC(=O)[C@H](Cc1ccccc1)NC(=O)[C@H](Cc1c[nH]c2ccccc12)NC(=O)[C@H](C)NC(=O)[C@H](CCC(N)=O)NC(=O)[C@H](CCCCN)NC(=O)[C@H](CC(C)C)NC(=O)[C@H](Cc1ccccc1)NC(=O)[C@H](CCC(=O)O)NC(=O)[C@H](COP(=O)(O)O)NC(=O)[C@@H](NC(=O)[C@H](CCSC)NC(=O)[C@H](C)NC(C)=O)C(C)C)C(=O)N[C@@H](CCC(=O)O)C(=O)N[C@@H](CC(N)=O)C(=O)N[C@@H](CCC(=O)O)C(=O)N[C@@H](CCC(=O)O)C(=O)N[C@@H](CCC(N)=O)C(=O)O` [Ac1−18P, Ac-AMV[pSer]EFLKQAWFIENEEQ] (Ac-AMV[pS]EFLKQAWFIENEEQ-OH), the Kd came out at 56.8 ± 1 µM.
Consider “Ac-AMVSEFLKQAWFIENEEQ [Ac1−18, Ac-AMVSEFLKQAWFIENEEQ]”, for which the Kd is 2.1 ± 0.2 µM.
